In article PMC9858213, “What Is Authentic Maple Water? A Twelve-Month Shelf-Life Study of the Chemical Composition of Maple Water and Its Biological Activities” (Foods, 2023):

Target: T1, tyrosinase
T1 construct: gene PPO1
Assay: absorbance at […] nm, tyrosinase inhibition in 96-well plate
Format: biochemical
Details: L-tyrosine substrate ([…] µL of […] in […] µL), phosphate buffer pH […], room temperature, […] min

IC50: 1.03 µM
SMILES: COc1cc(C(CO)C(c2ccc(O)c(OC)c2)c2ccc(O)c(OC)c2)ccc1O (stereo not shown) [quebecol]
